Each structure is given as a SMILES string.

The source of these data is US20250171420A1 (Monte Rosa Therapeutics, Inc., priority 2022, published 2025).

For one assay, the target named is T1, CK1α (Homo sapiens, UniProt P48729).
T1 construct: HEK293 clonal lines with CRISPR KI HiBiT tag on CSNK1A1
The assay can be described thus: CK1α NanoBit Assay (HiBiT-tagged CSNK1A1, HEK293 clonal lines). It is filed as cell-based. The following applies: HEK293 HiBiT-CSNK1A1/LgBiT cells, 24 h incubation. A digest of the protocol:
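HEK293 clones carrying a CRISPR knock-in HiBiT tag on CSNK1A1 and stably expressing LgBiT are treated with compound for 24 hours at 37° C, 5% CO2, then read by luminescence. Response is normalized as 100*(S−N)/(P−N) against plate negative and positive controls, and DC50 values are derived.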
(In general: HiBiT is a short tag that completes a luciferase, so light tracks the accessible tagged protein.)

In a further assay the target is CRBN/DDB1 (Homo sapiens, UniProt Q96SW2). Nature of the assay: HTRF binding assay (displacement of Cy5-thalidomide probe from CRBN/DDB1). The following applies: CRBN/DDB1 2.5 nM, Cy5-Thalidomide 100 nM, 30 min; geometric mean; read-out: HTRF_Thali_Disp_DR_geo_IC50. The source says:
Binding of test compounds to CRBN/DDB1 was monitored in an HTRF assay using 1-[5-({2-[2-(2-{[2-(2,6-dioxopiperidin-3-yl)-1,3-dioxo-2,3-dihydro-1H-isoindol-4-yl]oxy}acetamido)ethoxy]ethyl}carbamoyl)pentyl]-3,3-dimethyl-2-[(1E,3E)-5-[(2E)-1,3,3-trimethyl-5-sulfo-2,3-dihydro-1H-indol-2-ylidene]penta-1,3-dien-1-yl]-3H-indol-1-ium-5-sulfonate as a fluorescent probe. In this assay, compounds displace the fluorescently labeled thalidomide-based probe bound to CRBN and fluorescence is monitored with increasing compound concentration. Assays were conducted in Greiner white 384 well HiBase plates (Cat. No 784075-25) in 10 μL total volume. A one pot detection solution of CRBN/DDB1 (2.5 nM), anti-His Terbium Cryptate Gold (1×, PerkinElmer Cat. #: 61HI2TLB), and Cy5-Thalidomide (100 nM, Tenova Cat.: T52461) was prepared in 20 mM HEPES, 20 mM NaCl, 0.2 mM TCEP, 0.2 mM EDTA, and 0.005% Tween20 was dispensed to each assay plate. Test compounds were stored in dry, ambient temperatures at 10 mM. A 10-point, 1:3 dilution series was prepared from 10 mM stock concentrations in Echo-compatible LDV plates. 10 nL of each compound dilution series was dispensed into assays wells using an Echo 650 (Labcyte inc. USA). 10 nL of 10 mM lenalidomide (Selleckchem Cat no. S1029) was transferred into the active-control wells for the assay and 10 nL of DMSO was transferred into the negative control wells. The assay was then allowed to incubate for 30 min at ambient temperature after transferring the test compounds. Plate measurements were taken on a Pherastar FSX (BMG Labtech, Germany) using the HTRF Red filter (Ex. 337 nm, em1: 620 nm, em2: 665 nm) (Flashes: 50, Integration time: 60-400 μs, Z-height: 10 mm, Ratio-multiplier: 10,000). Analysis, HTRF ratio and IC50 values were derived using KNIME analytics (KNIME Zurich) transformation and fitting within Collaborative Drug Discovery (Collaborative Drug Discovery USA) using a 4-parameter logistic fit. HTRF ratio calculation was performed using the following formula: […]
where Y represents the HTRF ratio response (as defined previously), X the compound concentration in μM, Ymin the minimum response plateau, Ymax the maximum response plateau, IC50 the concentration of agonist that gives a response half way between Ymin and Ymax and HillSlope the steepness of the family of curves. No fitting model constraints was applied on Ymin, or Ymax whilst IC50>0 and −0.5>HillSlope>−3
Ki values were derived from the geometric mean of the IC50 values using the Cheng-Prusoff transformation:
where [L] represents the concentration of fluorescent probe in μM, Kd the affinity (binding constant) of the fluorescent probe in units of μM and IC50 the concentration of agonist that gives a response halfway between Ymin and Ymax (as described in 1.2.1)
Analysis and IC50 values were derived using KNIME analytics (KNIME, Zurich) transformation and fitting within Collaborative Drug Discovery (Collaborative Drug Discovery, USA) as described in 1.2.1. Ki values were derived from the geometric mean of the IC50 values using the Cheng-Prusoff transformation as described in 2.2.2. Data was visualized in GraphPad Prism 8.1.2 (GraphPad, USA) and reported as mean and standard deviation. Microsoft Office Excel 2012 (Redmond, WA) was used for calculation of mean and standard deviation.
IC50 data are reported in Table 3 for compounds in Table 1. In Table 3 below, According to the code, A represents a IC50 value of ≤0.1 μM, B represents a IC50 value>0.1 μM and ≤1 μM, C represents an IC50 value>1 μM.
In general terms: In TR-FRET formats the signal depends on donor and acceptor labels being close together.

Sequence of CRBN/DDB1 (Q96SW2 whole entry, species assumed): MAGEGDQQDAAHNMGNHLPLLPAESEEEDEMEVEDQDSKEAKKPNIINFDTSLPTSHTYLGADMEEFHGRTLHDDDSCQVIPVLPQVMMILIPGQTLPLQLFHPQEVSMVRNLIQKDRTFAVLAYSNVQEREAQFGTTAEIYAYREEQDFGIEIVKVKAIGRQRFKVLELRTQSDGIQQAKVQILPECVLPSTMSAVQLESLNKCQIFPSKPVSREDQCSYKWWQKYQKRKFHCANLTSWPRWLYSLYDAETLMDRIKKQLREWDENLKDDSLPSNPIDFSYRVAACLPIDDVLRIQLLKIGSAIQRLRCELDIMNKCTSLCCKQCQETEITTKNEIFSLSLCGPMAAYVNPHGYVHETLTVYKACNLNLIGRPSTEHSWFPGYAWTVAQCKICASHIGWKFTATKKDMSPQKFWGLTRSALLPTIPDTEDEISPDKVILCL
Sequence of CRBN/DDB1 (Q16531 whole entry partner, species assumed): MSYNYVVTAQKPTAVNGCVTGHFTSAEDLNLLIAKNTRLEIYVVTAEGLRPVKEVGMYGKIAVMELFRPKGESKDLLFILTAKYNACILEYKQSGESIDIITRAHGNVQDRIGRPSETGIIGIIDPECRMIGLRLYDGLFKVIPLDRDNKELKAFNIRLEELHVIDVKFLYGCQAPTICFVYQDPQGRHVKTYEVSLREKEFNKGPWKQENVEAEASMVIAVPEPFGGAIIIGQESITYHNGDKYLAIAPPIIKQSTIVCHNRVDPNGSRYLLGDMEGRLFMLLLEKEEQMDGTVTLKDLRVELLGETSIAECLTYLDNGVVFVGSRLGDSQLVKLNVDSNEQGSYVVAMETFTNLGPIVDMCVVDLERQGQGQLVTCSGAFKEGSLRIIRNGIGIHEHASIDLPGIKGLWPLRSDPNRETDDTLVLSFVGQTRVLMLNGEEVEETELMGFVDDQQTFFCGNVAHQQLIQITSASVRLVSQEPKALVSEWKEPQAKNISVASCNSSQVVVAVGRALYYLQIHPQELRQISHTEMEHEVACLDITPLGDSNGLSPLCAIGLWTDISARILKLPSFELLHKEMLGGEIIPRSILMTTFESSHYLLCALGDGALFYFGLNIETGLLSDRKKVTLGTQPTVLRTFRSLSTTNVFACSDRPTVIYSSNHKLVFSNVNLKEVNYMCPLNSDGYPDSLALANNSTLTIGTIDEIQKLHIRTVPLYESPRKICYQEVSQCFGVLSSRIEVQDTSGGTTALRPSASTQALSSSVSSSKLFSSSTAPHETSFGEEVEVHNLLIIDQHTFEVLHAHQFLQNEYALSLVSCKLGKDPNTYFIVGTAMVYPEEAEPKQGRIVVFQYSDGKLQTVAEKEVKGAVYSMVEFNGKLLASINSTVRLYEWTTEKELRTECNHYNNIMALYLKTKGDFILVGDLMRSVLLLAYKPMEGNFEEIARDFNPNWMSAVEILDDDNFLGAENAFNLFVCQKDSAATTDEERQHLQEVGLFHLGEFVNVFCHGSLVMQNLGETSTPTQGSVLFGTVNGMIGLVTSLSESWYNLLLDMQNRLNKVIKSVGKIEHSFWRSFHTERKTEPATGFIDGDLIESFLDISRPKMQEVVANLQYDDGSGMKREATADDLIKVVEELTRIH
T1 sequence (P48729 whole entry): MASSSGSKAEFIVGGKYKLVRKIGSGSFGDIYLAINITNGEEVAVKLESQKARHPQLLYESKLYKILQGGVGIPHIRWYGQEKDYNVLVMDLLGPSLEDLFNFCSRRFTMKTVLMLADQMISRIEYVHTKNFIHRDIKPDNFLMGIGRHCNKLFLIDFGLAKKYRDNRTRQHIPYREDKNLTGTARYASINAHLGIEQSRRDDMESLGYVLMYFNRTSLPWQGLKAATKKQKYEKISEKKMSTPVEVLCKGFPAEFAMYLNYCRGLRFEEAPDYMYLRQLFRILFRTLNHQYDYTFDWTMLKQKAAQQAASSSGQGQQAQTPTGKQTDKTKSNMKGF
T1 sequence (Q96SW2 whole entry, further chain): as the sequence (Q96SW2 whole entry, species assumed) above
T1 sequence (Q16531 2-1140 partner limits assumed): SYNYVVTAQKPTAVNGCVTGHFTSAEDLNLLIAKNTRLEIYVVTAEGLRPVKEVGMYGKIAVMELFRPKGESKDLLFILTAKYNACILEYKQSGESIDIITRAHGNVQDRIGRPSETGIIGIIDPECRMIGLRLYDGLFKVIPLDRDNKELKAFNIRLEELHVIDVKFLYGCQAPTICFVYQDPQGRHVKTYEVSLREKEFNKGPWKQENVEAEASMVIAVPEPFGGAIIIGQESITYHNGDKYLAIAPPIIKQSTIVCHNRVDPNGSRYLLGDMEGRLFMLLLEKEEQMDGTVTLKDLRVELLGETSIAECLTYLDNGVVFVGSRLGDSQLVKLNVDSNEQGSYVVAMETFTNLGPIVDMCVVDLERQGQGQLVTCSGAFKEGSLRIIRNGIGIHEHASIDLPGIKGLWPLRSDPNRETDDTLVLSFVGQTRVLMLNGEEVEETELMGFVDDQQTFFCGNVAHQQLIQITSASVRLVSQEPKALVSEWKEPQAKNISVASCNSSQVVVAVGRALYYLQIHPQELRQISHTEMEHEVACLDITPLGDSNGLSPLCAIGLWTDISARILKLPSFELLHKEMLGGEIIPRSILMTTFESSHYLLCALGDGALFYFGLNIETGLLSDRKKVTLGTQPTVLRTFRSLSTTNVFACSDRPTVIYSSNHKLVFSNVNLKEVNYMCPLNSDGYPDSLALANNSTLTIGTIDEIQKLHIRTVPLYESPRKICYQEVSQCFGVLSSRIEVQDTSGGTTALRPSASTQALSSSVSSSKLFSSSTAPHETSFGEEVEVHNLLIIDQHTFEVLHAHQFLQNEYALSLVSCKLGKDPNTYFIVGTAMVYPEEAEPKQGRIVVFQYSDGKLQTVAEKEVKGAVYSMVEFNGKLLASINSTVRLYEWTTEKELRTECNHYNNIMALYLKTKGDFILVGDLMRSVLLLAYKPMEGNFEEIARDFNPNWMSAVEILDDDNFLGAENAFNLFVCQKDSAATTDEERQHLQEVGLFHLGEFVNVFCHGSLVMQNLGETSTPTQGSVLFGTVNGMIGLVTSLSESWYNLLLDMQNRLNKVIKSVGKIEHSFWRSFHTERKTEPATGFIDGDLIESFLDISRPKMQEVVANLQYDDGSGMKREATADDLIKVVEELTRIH

`O=C1CCC(N2Cc3cc(NC(=O)N4CCc5cccc(C(F)(F)F)c54)ccc3C2=O)C(=O)N1` (centres unmarked) [Compound 117, N-(2-(2,6-dioxopiperidin-3-yl)-1-oxoisoindolin-5-yl)-7-(trifluoromethyl)indoline-1-carboxamide] showed a DC50 at CK1α of 0.1 to 1 µM. Moreover, the IC50 at CRBN/DDB1 was in the range of 100 to 1000 nM.
Turning to `CNC[C@@H]1Cc2ccccc2N1C(=O)Nc1ccc2c(c1)CN(C1CCC(=O)NC1=O)C2=O` (stereo partly drawn) [Compound 312, (2S)—N-(2-(2,6-dioxopiperidin-3-yl)-1-oxoisoindolin-5-yl)-2-((methylamino)methyl)indoline-1-carboxamide], the DC50 at CK1α lay within 0.1 to 1 µM. Besides, at CRBN/DDB1, the IC50 is 100 to 1000 nM.
Taken in the same sequence, the figures for `O=C1CCC(N2Cc3cc(NC(=O)N4c5ccc(C(F)(F)F)cc5CC45COC5)ccc3C2=O)C(=O)N1` (centres unmarked) [Compound 298] were less than 0.1 µM and 100 to 1000 nM.
The matching figures for `O=C1CCC(N2Cc3cc(NC(=O)N4c5ccccc5C[C@H]4COC(F)F)ccc3C2=O)C(=O)N1` (stereo partly drawn) [Compound 309, (2S)-2-((difluoromethoxy)methyl)-N-(2-(2,6-dioxopiperidin-3-yl)-1-oxoisoindolin-5-yl)indoline-1-carboxamide]: less than 0.1 µM and 100 to 1000 nM.
The compound `COCC1c2ccc(C(F)F)cc2CN1C(=O)Nc1ccc2c(c1)CN(C1CCC(=O)NC1=O)C2=O` (centres unmarked) [Compound 299, 5-(difluoromethyl)-N-(2-(2,6-dioxopiperidin-3-yl)-1-oxoisoindolin-5-yl)-1-(methoxymethyl)isoindoline-2-carboxamide] displayed a DC50 at CK1α of less than 0.1 µM. For the same compound, the IC50 at CRBN/DDB1 was 100 to 1000 nM.
The matching figures for `O=C1CCC(N2Cc3cc(NC(=O)N4CCc5cccc(F)c54)ccc3C2=O)C(=O)N1` (centres unmarked) [Compound 163, N-(2-(2,6-dioxopiperidin-3-yl)-1-oxoisoindolin-5-yl)-7-fluoroindoline-1-carboxamide]: less than 0.1 µM and 100 to 1000 nM.
The matching figures for `COCc1ccc2c(c1)CCN2C(=O)Nc1ccc2c(c1)CN(C1CCC(=O)NC1=O)C2=O` (centres unmarked) [Compound 330, N-(2-(2,6-dioxopiperidin-3-yl)-1-oxoisoindolin-5-yl)-5-(methoxymethyl)indoline-1-carboxamide]: less than 0.1 µM and 100 to 1000 nM.
At CK1α, `O=C1CCC(N2Cc3cc(NC(=O)N4c5ccccc5C[C@H]4CN4CCC4)ccc3C2=O)C(=O)N1` (stereo partly drawn) [Compound 315, (2S)-2-(azetidin-1-ylmethyl)-N-(2-(2,6-dioxopiperidin-3-yl)-1-oxoisoindolin-5-yl)indoline-1-carboxamide] had a DC50 of 0.1 to 1 µM. Moreover, on CRBN/DDB1, the IC50 was in the range of 100 to 1000 nM.
As for `O=C1CCC(N2Cc3cc(NC(=O)N4c5cccc(F)c5C[C@H]4COCC(F)(F)F)ccc3C2=O)C(=O)N1` (stereo partly drawn) [Compound 300, (2S)—N-(2-(2,6-dioxopiperidin-3-yl)-1-oxoisoindolin-5-yl)-4-fluoro-2-((2,2,2-trifluoroethoxy)methyl)indoline-1-carboxamide], the DC50 at CK1α was less than 0.1 µM. In addition, on CRBN/DDB1, the IC50 is 100 to 1000 nM.
The matching figures for `O=C1CC[C@H](N2Cc3cc(NC(=O)N4c5ccccc5C[C@@H]4C(F)(F)F)ccc3C2=O)C(=O)N1` (single isomer, unassigned) [Compound 362]: less than 0.1 µM and 100 to 1000 nM.
`O=C1CCC(N2Cc3cc(NC(=O)N4CC5(CCC5)c5ccccc54)ccc3C2=O)C(=O)N1` (centres unmarked) [Compound 188] came in with a DC50 at CK1α of less than 0.1 µM. Besides, the IC50 on CRBN/DDB1 lay within 100 to 1000 nM.
As for `N#Cc1cccc2c1N(C(=O)Nc1ccc3c(c1)CN(C1CCC(=O)NC1=O)C3=O)CC2` (centres unmarked) [Compound 147, 7-cyano-N-(2-(2,6-dioxopiperidin-3-yl)-1-oxoisoindolin-5-yl)indoline-1-carboxamide], the DC50 on CK1α was more than 1 µM. For the same compound, the IC50 at CRBN/DDB1 was in the range of 100 to 1000 nM.
Taken in the same sequence, the figures for `O=C1CCC(N2Cc3cc(NC(=O)N4CC5(CCCC5)c5ccccc54)ccc3C2=O)C(=O)N1` (centres unmarked) [Compound 192, N-(2-(2,6-dioxopiperidin-3-yl)-1-oxoisoindolin-5-yl)spiro[cyclopentane-1,3′-indoline]-1′-carboxamide] were less than 0.1 µM and 100 to 1000 nM.
The matching figures for `C[C@@H]1Cc2c(F)cccc2N1C(=O)Nc1ccc2c(c1)CN(C1CCC(=O)NC1=O)C2=O` (stereo partly drawn) [Compound 354, (2R)—N-(2-(2,6-dioxopiperidin-3-yl)-1-oxoisoindolin-5-yl)-4-fluoro-2-methylindoline-1-carboxamide]: less than 0.1 µM and 100 to 1000 nM.
Take `Cc1cc(C)c2c(c1)N(C(=O)Nc1ccc3c(c1)CN(C1CCC(=O)NC1=O)C3=O)CC2` (centres unmarked) [Compound 209]: on CK1α, the DC50 was less than 0.1 µM. The IC50 at CRBN/DDB1 was in the range of 100 to 1000 nM.
The matching figures for `O=C1CCC(N2Cc3cc(NC(=O)N4CCc5ccc(C6CCOC6)cc54)ccc3C2=O)C(=O)N1` (centres unmarked) [Compound 364, N-(2-(2,6-dioxopiperidin-3-yl)-1-oxoisoindolin-5-yl)-6-(tetrahydrofuran-3-yl)indoline-1-carboxamide]: 0.1 to 1 µM and 100 to 1000 nM.
With `O=C1CCC(N2Cc3cc(NC(=O)N4c5cccc(F)c5C[C@H]4COC(F)F)ccc3C2=O)C(=O)N1` (stereo partly drawn) [Compound 308, (2S)-2-((difluoromethoxy)methyl)-N-(2-(2,6-dioxopiperidin-3-yl)-1-oxoisoindolin-5-yl)-4-fluoroindoline-1-carboxamide], the DC50 at CK1α is less than 0.1 µM. Besides, the IC50 at CRBN/DDB1 fell in the range of 100 to 1000 nM.
Taken in the same sequence, the figures for `CNC(=O)[C@@H]1Cc2ccccc2N1C(=O)Nc1ccc2c(c1)CN(C1CCC(=O)NC1=O)C2=O` (stereo partly drawn) [Compound 326, (2S)—N^1-(2-(2,6-dioxopiperidin-3-yl)-1-oxoisoindolin-5-yl)-N^2-methylindoline-1,2-dicarboxamide] were 0.1 to 1 µM and 100 to 1000 nM.
Compound `O=C1CCC(N2Cc3cc(NC(=O)N4CCc5ccc(C6CCOCC6)cc54)ccc3C2=O)C(=O)N1` (centres unmarked) [Compound 365, N-(2-(2,6-dioxopiperidin-3-yl)-1-oxoisoindolin-5-yl)-6-(tetrahydro-2H-pyran-4-yl)indoline-1-carboxamide] returned a DC50 at CK1α of 0.1 to 1 µM. Besides, the IC50 on CRBN/DDB1 is 100 to 1000 nM.
With `NC[C@@H]1Cc2ccccc2N1C(=O)Nc1ccc2c(c1)CN(C1CCC(=O)NC1=O)C2=O` (stereo partly drawn) [Compound 310, (2S)-2-(aminomethyl)-N-(2-(2,6-dioxopiperidin-3-yl)-1-oxoisoindolin-5-yl)indoline-1-carboxamide], the DC50 on CK1α lay within 0.1 to 1 µM. On CRBN/DDB1, the IC50 was 100 to 1000 nM.
Taken in the same sequence, the figures for `O=C1CCC(N2Cc3cc(NC(=O)N4CCc5ccncc54)ccc3C2=O)C(=O)N1` (centres unmarked) [Compound 105, N-(2-(2,6-dioxopiperidin-3-yl)-1-oxoisoindolin-5-yl)-2,3-dihydro-1H-pyrrolo[2,3-c]pyridine-1-carboxamide] were less than 0.1 µM and 100 to 1000 nM.
The matching figures for `COC[C@@H]1Cc2c(cccc2C(F)(F)F)N1C(=O)Nc1ccc2c(c1)CN(C1CCC(=O)NC1=O)C2=O` (stereo partly drawn) [Compound 325, (2S)—N-(2-(2,6-dioxopiperidin-3-yl)-1-oxoisoindolin-5-yl)-2-(methoxymethyl)-4-(trifluoromethyl)indoline-1-carboxamide]: less than 0.1 µM and 100 to 1000 nM.
